The record followed here is the SangsterLogP compilation.

The series can be described thus: method code SF-AS, from PMID: 7312925.
For the molecule `Cc1cc(O)c(N)nn1`, the logP (as a rule, the decadic logarithm of the partition coefficient of the neutral form, usually between octanol and water) was -0.85.
The molecule `Cc1cc(O)c(O)nn1` came in with a logP of -0.3.
Under `Cc1cc(=O)c2nncn2[nH]1` stands -0.21; under `Cc1cc(C)c(NN(C=O)Cc2ccccc2)nn1`, 0.61; under `Cc1cc(S)c(N)nn1`, 0.13.
Under `CCOc1cc(=O)c2nncn2[nH]1` stands 0.02; under `Cc1cc(OCC(=O)O)c(Cl)nn1`, -1.22.
Regarding `Cc1cc(O)c(Cl)nn1`, the logP is -0.82.
In the case of `Cc1[nH]n2cnnc2c(=O)c1N=O`, the logP was -1.1.
The molecule `Cc1cc(O)c(N(C)C)nn1` gave a logP of 0.24.
In turn, `CC(=O)Nc1nnc(C)cc1O` had a logP of -0.89.
With `Cc1cc(C)c(N)nn1` the figure was -0.32; with `Cc1[nH]n2cnnc2c(=O)c1Br`, -0.68.
Under `Cc1[nH]n2cnnc2c(=O)c1N` stands -0.52; under `Cc1cc(O)c(N2CCOCC2)nn1`, -0.06; under `Cc1cc(C)c(N/N=C\c2ccccc2)nn1`, 0.93.
